Data on twelve molecules can be found in US9499535B2, “Kinase inhibitors” (ORIGENIS GMBH, priority 2011, dated 2016).

In test [1] the target is LRRK2 (Homo sapiens, UniProt Q5S007). Put plainly: LRRK2 assay (LanthaScreen Eu Kinase Binding Assay). The following applies: 5 nM LRRK2, 10 nM tracer 236, RT 1 h; read-out: LRRK2 Activites: IC50. The procedure, abridged:
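IC50 was derived from a sigmoidal dose-response fit with variable slope, plotting emission ratio against inhibitor concentration. The read-out is loss of FRET between a europium-labelled anti-tag antibody on the kinase and a tracer displaced by inhibitor.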

In test [2] the target is T1, SYK kinase (Homo sapiens, UniProt P43405).
T1 construct: purchased Invitrogen, Carlsbad
In words: SYK assay (OMNIA Kinase Assay, Invitrogen). Type of test: biochemical. The settings on record: apparent Ki calculated from the IC50 using the Cheng-Prusoff equation; 1 mM ATP, 10 μM Peptide Substrate; read-out: SYK Activities: Ki. Put shortly:
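Reaction velocities were measured from kinetic fluorescence reads (360/485 nm, every 30 s over 30 min) of Mg2+-chelated SOX signal. Conditions were 1 mM ATP, 10 μM Omnia Tyr 7 peptide and 0.2 mM DTT at 30° C. Sigmoidal IC50 fits were converted to apparent Ki using Cheng-Prusoff.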

In test [3] the target is MYLK (Homo sapiens, UniProt Q15746). In words: MYLK assay (LanthaScreen Eu Kinase Binding Assay). The settings on record: 5 nM MYLK, 30 nM tracer 236, RT 1 h; read-out: MYLK Activites: IC50. Put shortly: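 TR-FRET tracer-displacement binding: 5 nM MYLK with 2 nM Eu-anti-GST antibody and 30 nM tracer 236 in kinase buffer A, 1 h at RT. The 665/615 nm emission ratio was plotted against inhibitor concentration; IC50 from variable-slope sigmoidal fit.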
Chain of MYLK (Q15746 whole entry): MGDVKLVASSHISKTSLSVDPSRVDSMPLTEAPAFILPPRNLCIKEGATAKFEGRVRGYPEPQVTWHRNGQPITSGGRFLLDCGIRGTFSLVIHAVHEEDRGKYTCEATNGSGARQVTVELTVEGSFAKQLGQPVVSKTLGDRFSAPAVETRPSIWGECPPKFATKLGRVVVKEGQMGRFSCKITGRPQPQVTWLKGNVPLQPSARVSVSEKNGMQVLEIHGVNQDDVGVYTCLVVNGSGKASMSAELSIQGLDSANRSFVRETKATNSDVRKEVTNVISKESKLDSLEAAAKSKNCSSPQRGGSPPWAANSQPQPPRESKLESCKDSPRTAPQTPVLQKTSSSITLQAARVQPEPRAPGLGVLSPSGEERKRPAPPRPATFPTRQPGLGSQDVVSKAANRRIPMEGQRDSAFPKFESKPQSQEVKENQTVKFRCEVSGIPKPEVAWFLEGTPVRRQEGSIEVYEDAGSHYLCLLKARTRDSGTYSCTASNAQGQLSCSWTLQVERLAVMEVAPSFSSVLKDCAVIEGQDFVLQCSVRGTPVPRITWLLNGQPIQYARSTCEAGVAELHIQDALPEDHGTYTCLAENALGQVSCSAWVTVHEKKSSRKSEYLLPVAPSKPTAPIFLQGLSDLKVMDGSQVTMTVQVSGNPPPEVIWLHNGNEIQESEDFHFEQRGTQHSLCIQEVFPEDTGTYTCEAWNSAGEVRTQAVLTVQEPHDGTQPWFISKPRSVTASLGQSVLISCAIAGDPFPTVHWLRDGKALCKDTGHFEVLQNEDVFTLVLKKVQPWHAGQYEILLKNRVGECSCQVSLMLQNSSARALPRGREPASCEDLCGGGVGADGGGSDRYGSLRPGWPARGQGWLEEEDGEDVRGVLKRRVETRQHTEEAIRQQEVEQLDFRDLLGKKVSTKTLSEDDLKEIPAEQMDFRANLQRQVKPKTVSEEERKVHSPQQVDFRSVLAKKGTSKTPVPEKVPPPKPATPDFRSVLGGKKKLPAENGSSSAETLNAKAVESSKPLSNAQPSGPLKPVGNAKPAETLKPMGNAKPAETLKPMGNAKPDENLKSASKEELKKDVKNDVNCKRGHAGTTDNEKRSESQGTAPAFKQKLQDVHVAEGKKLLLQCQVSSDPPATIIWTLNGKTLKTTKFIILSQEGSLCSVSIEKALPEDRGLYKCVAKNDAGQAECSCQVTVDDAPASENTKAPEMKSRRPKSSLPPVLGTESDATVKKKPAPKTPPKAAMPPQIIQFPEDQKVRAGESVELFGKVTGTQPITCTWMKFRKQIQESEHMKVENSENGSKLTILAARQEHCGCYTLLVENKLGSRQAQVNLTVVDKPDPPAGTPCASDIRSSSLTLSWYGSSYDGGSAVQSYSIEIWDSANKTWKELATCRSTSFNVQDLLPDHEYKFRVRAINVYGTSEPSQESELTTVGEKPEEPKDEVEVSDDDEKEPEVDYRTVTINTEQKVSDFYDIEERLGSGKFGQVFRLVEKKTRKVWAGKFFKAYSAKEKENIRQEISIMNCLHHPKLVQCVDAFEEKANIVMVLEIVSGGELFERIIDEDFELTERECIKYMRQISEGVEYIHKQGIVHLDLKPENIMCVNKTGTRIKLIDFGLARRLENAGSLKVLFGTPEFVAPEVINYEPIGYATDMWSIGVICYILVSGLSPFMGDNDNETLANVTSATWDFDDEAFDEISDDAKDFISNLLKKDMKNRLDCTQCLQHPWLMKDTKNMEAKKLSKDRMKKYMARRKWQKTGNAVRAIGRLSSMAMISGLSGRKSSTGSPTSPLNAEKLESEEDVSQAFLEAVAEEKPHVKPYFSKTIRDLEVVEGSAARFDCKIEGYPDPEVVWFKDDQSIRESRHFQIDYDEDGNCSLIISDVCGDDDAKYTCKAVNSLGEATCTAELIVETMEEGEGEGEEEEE

Chain of LRRK2 (Q5S007 970-2527 limits assumed): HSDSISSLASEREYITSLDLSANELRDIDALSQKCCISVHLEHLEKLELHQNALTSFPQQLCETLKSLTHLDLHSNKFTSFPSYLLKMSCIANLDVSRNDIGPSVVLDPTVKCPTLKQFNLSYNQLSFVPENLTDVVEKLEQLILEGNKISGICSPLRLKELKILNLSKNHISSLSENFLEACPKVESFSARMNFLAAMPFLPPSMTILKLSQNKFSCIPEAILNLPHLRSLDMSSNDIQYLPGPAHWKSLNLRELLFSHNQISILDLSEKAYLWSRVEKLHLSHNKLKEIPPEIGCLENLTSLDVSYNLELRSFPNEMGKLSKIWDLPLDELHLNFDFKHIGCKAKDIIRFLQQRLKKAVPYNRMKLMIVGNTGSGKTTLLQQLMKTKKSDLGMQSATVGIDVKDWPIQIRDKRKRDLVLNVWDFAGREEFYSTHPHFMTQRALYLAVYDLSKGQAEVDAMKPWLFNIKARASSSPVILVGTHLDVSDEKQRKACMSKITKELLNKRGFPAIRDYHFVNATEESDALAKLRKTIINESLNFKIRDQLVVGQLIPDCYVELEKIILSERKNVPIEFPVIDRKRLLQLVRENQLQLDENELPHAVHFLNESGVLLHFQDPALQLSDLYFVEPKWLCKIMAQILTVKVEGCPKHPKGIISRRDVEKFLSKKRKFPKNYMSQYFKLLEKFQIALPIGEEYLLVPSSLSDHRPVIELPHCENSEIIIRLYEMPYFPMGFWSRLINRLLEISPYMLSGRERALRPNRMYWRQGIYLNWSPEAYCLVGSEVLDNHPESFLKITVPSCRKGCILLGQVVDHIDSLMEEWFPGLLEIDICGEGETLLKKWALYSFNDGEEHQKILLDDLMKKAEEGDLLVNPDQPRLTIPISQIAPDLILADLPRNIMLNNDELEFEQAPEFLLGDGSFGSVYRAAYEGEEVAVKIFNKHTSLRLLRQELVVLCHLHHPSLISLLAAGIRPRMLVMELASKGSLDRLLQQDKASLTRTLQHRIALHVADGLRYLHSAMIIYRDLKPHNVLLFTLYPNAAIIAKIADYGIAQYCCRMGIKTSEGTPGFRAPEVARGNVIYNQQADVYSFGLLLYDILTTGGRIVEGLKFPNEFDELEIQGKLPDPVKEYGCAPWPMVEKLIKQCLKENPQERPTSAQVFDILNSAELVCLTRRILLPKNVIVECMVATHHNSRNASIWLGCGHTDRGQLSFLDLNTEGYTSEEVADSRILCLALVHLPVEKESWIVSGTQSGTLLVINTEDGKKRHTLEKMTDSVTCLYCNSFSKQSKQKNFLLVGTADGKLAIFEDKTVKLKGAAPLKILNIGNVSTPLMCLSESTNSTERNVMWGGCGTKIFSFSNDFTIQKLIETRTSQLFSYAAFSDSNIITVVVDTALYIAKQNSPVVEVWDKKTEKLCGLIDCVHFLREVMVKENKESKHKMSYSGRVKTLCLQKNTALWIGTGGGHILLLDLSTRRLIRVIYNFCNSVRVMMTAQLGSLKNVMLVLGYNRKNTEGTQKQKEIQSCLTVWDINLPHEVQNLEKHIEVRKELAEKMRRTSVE

As for `COc1ccc2nc(Nc3ccc(NC(C)=O)cc3)c3n[nH]cc3c2c1` [Example #128, N-[4-(8-Methoxy-2H-pyrazolo[3,4-c]quinolin-4-ylamino)-phenyl]-acetamide], the IC50 in test [1] was 100 to 1000 nM; in test [3], less than 5 µM. The Ki in test [2] was 10 to 100 nM.

In the case of `COc1ccc2nc(Nc3cccc(S(N)(=O)=O)c3)c3n[nH]cc3c2c1` [Example #131, 3-(8-Methoxy-2H-pyrazolo[3,4-c]quinolin-4-ylamino)-benzenesulfonamide], the IC50 in test [1] is 10 to 100 nM; in test [3], less than 5 µM. In test [2], the Ki was 100 to 1000 nM.

As to `COc1ccc2nc(Nc3ccc(S(N)(=O)=O)cc3)c3n[nH]cc3c2c1` [Example #132, 4-(8-Methoxy-2H-pyrazolo[3,4-c]quinolin-4-ylamino)-benzenesulfonamide], the IC50 in test [1] is 10 to 100 nM; in test [3], less than 5 µM. The Ki in test [2] is 10 to 100 nM.

Consider `COc1cc2nc(Nc3ccc(N4CCOCC4)cc3)c3n[nH]cc3c2cc1OC` [Example #133, (7,8-Dimethoxy-2H-pyrazolo[3,4-c]quinolin-4-yl)-(4-morpholin-4-yl-phenyl)-amine], for which the IC50 was 100 to 1000 nM in test [1] and less than 5 µM in test [3]. In addition, the Ki in test [2] is 10 to 100 nM.

As to `COc1cc2nc(Nc3ccc(N4CCN(C)CC4)cc3)c3n[nH]cc3c2cc1OC` [Example #134, (7,8-Dimethoxy-2H-pyrazolo[3,4-c]quinolin-4-yl)-[4-(4-methyl-piperazin-1-yl)-phenyl]-amine], the results for the concentration for half-maximal inhibition (IC50) in test [1] and in test [3] were 100 to 1000 nM and less than 5 µM, respectively. The Ki in test [2] was 10 to 100 nM.

Regarding `COc1cc2nc(Nc3ccc4cn[nH]c4c3)c3n[nH]cc3c2cc1OC` [Example #136, (7,8-Dimethoxy-2H-pyrazolo[3,4-c]quinolin-4-yl)-(1H-indazol-6-yl)-amine], the IC50 is 100 to 1000 nM in test [1] and less than 5 µM in test [3]. Moreover, the Ki in test [2] was 10 to 100 nM.

On to `COc1ccc2nc(Nc3ccc(OC)c(NC(C)=O)c3)c3n[nH]cc3c2c1` [Example #142, N-[2-Methoxy-5-(8-methoxy-2H-pyrazolo[3,4-c]quinolin-4-ylamino)-phenyl]-acetamide], for which the results for the IC50 in test [1] and in test [3] were 100 to 1000 nM and less than 5 µM, respectively. Besides, in test [2], the Ki is 10 to 100 nM.

Turning to `COc1ccc2nc(Nc3ccc4c(c3)COC4)c3n[nH]cc3c2c1` [Example #147, (1,3-Dihydro-isobenzofuran-5-yl)-(8-methoxy-2H-pyrazolo[3,4-c]quinolin-4-yl)-amine], the IC50 in test [1] was 10 to 100 nM; in test [3], less than 5 µM. For the same molecule, the Ki in test [2] was 10 to 100 nM.

In the case of `COc1ccc2nc(Nc3ccc4ncn(C)c4c3)c3n[nH]cc3c2c1` [Example #148, (8-Methoxy-2H-pyrazolo[3,4-c]quinolin-4-yl)-(3-methyl-3H-benzoimidazol-5-yl)-amine], the values for the concentration for half-maximal inhibition (IC50) in test [1] and in test [3] were 100 to 1000 nM and less than 5 µM, respectively. Also, in test [2], the Ki was 100 to 1000 nM.

For the molecule `COc1cc2nc(Nc3cc(C4CC4)[nH]n3)c3n[nH]cc3c2cc1OC` [Example #150, (5-Cyclopropyl-1H-pyrazol-3-yl)-(7,8-dimethoxy-2H-pyrazolo[3,4-c]quinolin-4-yl)-amine], the half-inhibitory concentration (IC50) in test [1] is 10 to 100 nM; in test [3], less than 5 µM. Besides, the Ki in test [2] was 10 to 100 nM.

Consider `COc1ccc(Nc2nc3cc(OC)c(OC)cc3c3c[nH]nc23)cc1O` [Example #152, 5-(7,8-Dimethoxy-2H-pyrazolo[3,4-c]quinolin-4-ylamino)-2-methoxy-phenol], for which the concentration for half-maximal inhibition (IC50) in test [1] was 100 to 1000 nM; in test [3] it was less than 5 µM. Further, the Ki in test [2] is 10 to 100 nM.

Regarding `COc1ccc2nc(Nc3ccc4c(c3)nc3n4CCN(C)C3)c3n[nH]cc3c2c1` [Example #160, (8-Methoxy-2H-pyrazolo[3,4-c]quinolin-4-yl)-(2-methyl-1,2,3,4-tetrahydro-benzo[4,5]imidazo[1,2-a]pyrazin-8-yl)-amine], the IC50 in test [1] is 100 to 1000 nM; in test [3], less than 5 µM. In addition, the Ki in test [2] was 10 to 100 nM.
